Measurements: the NIST ThermoML archive (doi:10.1016/j.jct.2018.12.031)

Assay: xn = mol fraction of the nth substance listed
Details: 100 kPa, Liquid; for speed of sound: Frequency=3 MHz, Linear variable-path acoustic interferometer; for mass density: Pycnometric method

N#Cc1ccccc1 [benzonitrile] + C=C(C)C(=O)OC
Details	mass density [kg/m3]	speed of sound [m/s]
293.15 K, x1 = 0.0652	948.11	1220.4
293.15 K, x1 = 0.1303	952.71	1239.9
293.15 K, x1 = 0.1922	956.98	1258.1
293.15 K, x1 = 0.271	962.27	1279.6
293.15 K, x1 = 0.3371	966.59	1296.9
293.15 K, x1 = 0.4174	971.69	1316.8
293.15 K, x1 = 0.4872	976	1333.2
293.15 K, x1 = 0.5689	980.9	1351.4
293.15 K, x1 = 0.6398	985.02	1366.6
293.15 K, x1 = 0.7089	988.92	1381.1
293.15 K, x1 = 0.7767	992.63	1394.4
293.15 K, x1 = 0.8571	996.88	1410
293.15 K, x1 = 0.9252	1000.34	1422.4
293.15 K, x1 = 1	1003.99	1436.9
298.15 K, x1 = 0.0652	942.55	1203.9
298.15 K, x1 = 0.1303	947.32	1223.6
298.15 K, x1 = 0.1922	951.75	1241.7
298.15 K, x1 = 0.271	957.23	1263.3
298.15 K, x1 = 0.3371	961.71	1280.2
298.15 K, x1 = 0.4174	966.99	1299.9
298.15 K, x1 = 0.4872	971.45	1316.2
298.15 K, x1 = 0.5689	976.51	1334.3
298.15 K, x1 = 0.6398	980.77	1349.3
298.15 K, x1 = 0.7089	984.8	1363.6
298.15 K, x1 = 0.7767	988.63	1376.7
298.15 K, x1 = 0.8571	993.01	1392.3
298.15 K, x1 = 0.9252	996.57	1404.6
298.15 K, x1 = 1	1000.32	1418.2
303.15 K, x1 = 0.0652	936.99	1189.3
303.15 K, x1 = 0.1303	941.93	1209
303.15 K, x1 = 0.1922	946.52	1227
303.15 K, x1 = 0.271	952.19	1248.3
303.15 K, x1 = 0.3371	956.83	1265.4
303.15 K, x1 = 0.4174	962.29	1284.8
303.15 K, x1 = 0.4872	966.9	1300.8
303.15 K, x1 = 0.5689	972.12	1319
303.15 K, x1 = 0.6398	976.52	1333.8
303.15 K, x1 = 0.7089	980.68	1348
303.15 K, x1 = 0.7767	984.63	1360.9
303.15 K, x1 = 0.8571	989.14	1376
303.15 K, x1 = 0.9252	992.8	1388.2
303.15 K, x1 = 1	996.65	1400.7
308.15 K, x1 = 0.0652	931.43	1173.8
308.15 K, x1 = 0.1303	936.55	1193.9
308.15 K, x1 = 0.1922	941.29	1211.7
308.15 K, x1 = 0.271	947.15	1232.7
308.15 K, x1 = 0.3371	951.93	1249.6
308.15 K, x1 = 0.4174	957.57	1268.8
308.15 K, x1 = 0.4872	962.33	1284.7
308.15 K, x1 = 0.5689	967.73	1302.9
308.15 K, x1 = 0.6398	972.27	1317.9
308.15 K, x1 = 0.7089	976.56	1332
308.15 K, x1 = 0.7767	980.63	1345.5
308.15 K, x1 = 0.8571	985.27	1360.6
308.15 K, x1 = 0.9252	989.03	1372
308.15 K, x1 = 1	992.98	1384
313.15 K, x1 = 0.0652	925.87	1157
313.15 K, x1 = 0.1303	931.16	1177.3
313.15 K, x1 = 0.1922	936.06	1195.3
313.15 K, x1 = 0.271	942.12	1216.5
313.15 K, x1 = 0.3371	947.05	1233.2
313.15 K, x1 = 0.4174	952.87	1252.4
313.15 K, x1 = 0.4872	957.78	1268.5
313.15 K, x1 = 0.5689	963.35	1286.5
313.15 K, x1 = 0.6398	968.02	1302.2
313.15 K, x1 = 0.7089	972.44	1316.5
313.15 K, x1 = 0.7767	976.63	1330.5
313.15 K, x1 = 0.8571	981.4	1345.5
313.15 K, x1 = 0.9252	985.26	1357.2
313.15 K, x1 = 1	989.31	1368.2
318.15 K, x1 = 0.0652	920.31	1140.3
318.15 K, x1 = 0.1303	925.77	1160.8
318.15 K, x1 = 0.1922	930.83	1179
318.15 K, x1 = 0.271	937.08	1200
318.15 K, x1 = 0.3371	942.18	1216.8
318.15 K, x1 = 0.4174	948.18	1236
318.15 K, x1 = 0.4872	953.23	1251.9
318.15 K, x1 = 0.5689	958.96	1270.3
318.15 K, x1 = 0.6398	963.77	1286
318.15 K, x1 = 0.7089	968.31	1300.9
318.15 K, x1 = 0.7767	972.61	1315
318.15 K, x1 = 0.8571	977.51	1330.8
318.15 K, x1 = 0.9252	981.48	1342.4
318.15 K, x1 = 1	985.64	1352.9
